The experiment concerns hepatocytes. Nature of the experiment: RNA-seq of hepatocytes treated with Phase III failure compounds. As to the method: RNA-seq was performed to determine the effects of the compounds on hepatocytes.
Significance was determined by the criteria of FPKM≥0.5, a log 2(fold-change)≥1, and a […].

From patent US20210254056A1, “IDENTIFICATION AND TARGETED MODULATION OF GENE SIGNALING NETWORKS” (CAMP4 THERAPEUTICS CORPORATION, priority 2017, published 2021) come the findings set out here.

For the compound `COc1cccc2c1C(=O)c1c(O)c3c(c(O)c1C2=O)C[C@@](O)(/C(CO)=N/NC(=O)CCCCCN1C(=O)C=CC1=O)C[C@@H]3O[C@H]1C[C@H](N)[C@H](O)[C@H](C)O1` [INNO-206 (aldoxorubicin), aldoxorubicin], the “Number (#) of genes having significantly changed expression” value was 1944. The “significant modulation of expression of disease genes” value (RNA-seq, q≤0.05, hepatocytes, genes in the value or listed in the block) was “significantly (q≤0.05) modulate expression”. Further, the “B2M expression, RNA-seq result” value (gene B2M, hepatocytes) stood at 0.38. The “B9D2 expression, RNA-seq result” value (gene B9D2, hepatocytes) worked out at 0.04. The “BAAT expression, RNA-seq result” value (gene BAAT, hepatocytes) is listed as −1.32. The “BBOX1 expression, RNA-seq result” value (gene BBOX1, hepatocytes) was −1.19. Under “gene BBS10, hepatocytes”, the “BBS10 expression, RNA-seq result” value is on record as −0.06. Besides, the “BCHE expression, RNA-seq result” value (gene BCHE, hepatocytes) is reported as −0.69. Besides, the “BCKDHB expression, RNA-seq result” value (gene BCKDHB, hepatocytes) came out at 0. Also, the “BCKDK expression, RNA-seq result” value (gene BCKDK, hepatocytes) was −0.91. Where the note is “gene BCO1, hepatocytes”, the “BCO1 expression, RNA-seq result” value is reported as −0.28. For the same compound, the “BCR expression, RNA-seq result” value (gene BCR, hepatocytes) is recorded as −0.83. Besides, under “gene BLNK, hepatocytes”, the “BLNK expression, RNA-seq result” value stood at 1.32. Besides, the “BLOC1S3 expression, RNA-seq result” value (gene BLOC1S3, hepatocytes) is −0.26. Also, the “BMPR1A expression, RNA-seq result” value (gene BMPR1A, hepatocytes) is −0.33. In addition, where the note is “gene BRAF, hepatocytes”, the “BRAF expression, RNA-seq result” value is recorded as −0.34. The “BSCL2 expression, RNA-seq result” value (gene BSCL2, hepatocytes) came to 0.84. Further, the “BTD expression, RNA-seq result” value (gene BTD, hepatocytes) is reported as −0.48. Where the note is “gene C4A, hepatocytes”, the “C4A expression, RNA-seq result” value turned out to be 0.4. Moreover, the “C9 expression, RNA-seq result” value (gene C9, hepatocytes) is 1.1. Besides, the “C10orf10 expression, RNA-seq result” value (gene C10orf10, hepatocytes) is 1.26. Besides, the “C10orf11 expression, RNA-seq result” value (gene C10orf11, hepatocytes) is on record as −1.44. Also, the “C15orf41 expression, RNA-seq result” value (gene C15orf41, hepatocytes) is reported as −1.28. Further, the “CA2 expression, RNA-seq result” value (gene CA2, hepatocytes) is given as 1.36. For the same compound, the “CA5A expression, RNA-seq result” value (gene CA5A, hepatocytes) is on record as −0.64. In addition, the “CA12 expression, RNA-seq result” value (gene CA12, hepatocytes) is on record as 0.43. For the same compound, the “CAV1 expression, RNA-seq result” value (gene CAV1, hepatocytes) stood at 0.02. Also, the “CCND1 expression, RNA-seq result” value (gene CCND1, hepatocytes) worked out at 0.26. For the same compound, for the setting “gene CD46, hepatocytes”, the “CD46 expression, RNA-seq result” value was found to be 1.34. The “CD81 expression, RNA-seq result” value (gene CD81, hepatocytes) was 0.46. The “CD320 expression, RNA-seq result” value (gene CD320, hepatocytes) is given as −0.9. For the same compound, the “CDAN1 expression, RNA-seq result” value (gene CDAN1, hepatocytes) is −0.23. The “CDH1 expression, RNA-seq result” value (gene CDH1, hepatocytes) is given as −0.12. The “CEP19 expression, RNA-seq result” value (gene CEP19, hepatocytes) was found to be 0.44. In addition, the “CEP83 expression, RNA-seq result” value (gene CEP83, hepatocytes) is reported as −1.24. Also, the “CEP164 expression, RNA-seq result” value (gene CEP164, hepatocytes) turned out to be 1.34. Further, under “gene CEP290, hepatocytes”, the “CEP290 expression, RNA-seq result” value was −1.26. Further, the “CFB expression, RNA-seq result” value (gene CFB, hepatocytes) stood at 0.72. Also, under “gene CFHR2, hepatocytes”, the “CFHR2 expression, RNA-seq result” value turned out to be 1.2. Also, under “gene CHRM3, hepatocytes”, the “CHRM3 expression, RNA-seq result” value is given as −0.08. Also, the “CIDEC expression, RNA-seq result” value (gene CIDEC, hepatocytes) was −0.39. Further, the “CLDN1 expression, RNA-seq result” value (gene CLDN1, hepatocytes) was −0.93. Further, where the note is “gene COG1, hepatocytes”, the “COG1 expression, RNA-seq result” value is given as 0.38.

As to `C[C@H](Oc1ccc(S(C)(=O)=O)cc1C(=O)N1CCN(c2ncc(C(F)(F)F)cc2F)CC1)C(F)(F)F` [Bitopertin], where the note is “RNA-seq of Table 36, FPKM≥0.5, log 2(fold-change)≥1, q-value≤0.05”, the “significant changes in gene expression” value was “not observed to cause any significant changes in gene expression”. The “significant modulation of expression of any of the genes analyzed” value (RNA-seq, p≤0.05, hepatocytes) is given as “not observed to significantly modulate expression”.
